Assay results from PMC11249646, “Small-Molecule Disruptors of the Interaction between Calcium- and Integrin-Binding Protein 1 and Integrin αIIbβ3 as Novel Antiplatelet Agents” (ACS Pharmacology & Translational Science, 2024).
Like-named read-outs stand apart in the source and are kept apart here. Where a SMILES comes first, the peptide text is derived from it. The star is where a group is joined. FITC = O=C1OC2(c3ccc(O)cc3Oc3cc(O)ccc32)c2ccc(NC(=S)*)cc21

How the values were obtained:
Format in all cases: binding
[1] = target: T1, GST-CIB1 : F-scrambled peptide (Homo sapiens, UniProt Q99828); assay: FP scrambled-peptide counter screen, 384-well format; details: for IC50: read-out: 384-well COUNTERSCREEN IC50
T1 construct: made in house; host or cells: BL-21 plus RIL cells (E. coli)
T1 sequence (Q99828 1-191): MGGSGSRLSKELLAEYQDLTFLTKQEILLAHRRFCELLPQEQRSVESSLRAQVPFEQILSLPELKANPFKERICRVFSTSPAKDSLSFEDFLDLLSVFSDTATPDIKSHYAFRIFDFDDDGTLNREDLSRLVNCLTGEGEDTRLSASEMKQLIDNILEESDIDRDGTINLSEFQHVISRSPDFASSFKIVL

[2] = target: T2, CIB1 and αIIb interaction (CIB1-GST : F-αIIb peptide) (Homo sapiens, UniProt Q99828); assay: FP assay, 1536-well qHTS format (primary and confirmatory screen); details: for Curve Class (confirmatory screen) / CONFIRMATORY SCREEN Curve Class: qHTS curve class
T2 construct: made in house; host or cells: BL-21 plus RIL cells (E. coli)
T2 sequence (Q99828 1-191): T1 sequence (Q99828 1-191)

[3] = target: T3, CIB1 and αIIb interaction (GST-CIB1 : F-αIIb peptide) (Homo sapiens, UniProt Q99828); assay: FP assay, 384-well format (screen); parameters: 384-well SCREEN Efficacy (%): concentration or dose not given beside the values; details: for IC50: read-out: 384-well SCREEN IC50
T3 construct: made in house; host or cells: BL-21 plus RIL cells (E. coli)
T3 sequence (Q99828 1-191): T1 sequence (Q99828 1-191)

[4] = target: T1, GST-CIB1 : F-scrambled peptide; assay: FP scrambled-peptide counter screen, 1536-well format; details: for Curve Class (counterscreen) / COUNTERSCREEN Curve Class: qHTS curve class; for IC50: read-out: IC50 [μM] (counterscreen)
[5] = qHTS primary screen hits, Table S2, negative = inhibition
[6] = qHTS primary screen hits, Table S2, negative sign = inhibitory curve
[7] = qHTS primary screen hits, Table S2, read-out: IC50
[8] = Table S3, confirmatory screen, a negative sign marks inhibitory curves
[9] = Table S3, confirmatory screen, negative = inhibition
[10] = qHTS primary screen hits, Table S2, negative sign = inhibitory curve, several classes where COUNT > 1
[11] = Table S3, counterscreen, a negative sign marks inhibitory curves
[12] = Table S3, counterscreen, negative = inhibition
[13] = confirmatory screen, negative sign = inhibitory curve
[14] = scrambled-peptide counterscreen
[15] = qHTS FP screen hits, Table S2, negative = inhibition
[16] = qHTS FP screen hits, Table S2, read-out: IC50

Nc1c(S(=O)(=O)[O-])cc(Nc2ccc(Nc3nc(Cl)nc(Nc4ccc(S(=O)(=O)O)cc4)n3)c(S(=O)(=O)O)c2)c2c1C(=O)c1ccccc1C2=O.[Na+] [NCGC00162329-02]
384-well COUNTERSCREEN Efficacy (%) ([1]; F-scrambled peptide): 60%
IC50 ([1]; F-scrambled peptide): 1.3 µM
Efficacy (%) [2, 5]: -64%
Curve Class [2, 6]: -1.2
IC50 [2, 7]: 1.4 µM
384-well SCREEN Efficacy (%) ([3]; F-αIIb peptide): 60%
384-well SCREEN Confirm? ([3]; F-αIIb peptide, YES/NO): YES
IC50 ([3]; F-αIIb peptide): 1 µM

O=[N+]([O-])c1ccc2c(c1)S(=O)(=O)C=C2 [NCGC00167848-02]
384-well COUNTERSCREEN Efficacy (%) [1]: 45%
IC50 ([1]; F-scrambled peptide): > 120 µM
Curve Class [2]: -1.4
Efficacy (%) [2]: -37%
IC50 [2, 7]: 0.7 µM
384-well SCREEN Confirm? [3]: YES
384-well SCREEN Efficacy (%) [3]: 50%
IC50 ([3]; F-αIIb peptide): 120 µM

CN(C)[C@@H]1CCN(c2cccc(Nc3nn4c(=O)c5ccccc5nc4s3)c2)C1.Cl [NCGC00189223-01]
384-well COUNTERSCREEN Efficacy (%) ([1]; F-scrambled peptide): 34%
IC50 ([1]; F-scrambled peptide): 14.1 µM
384-well SCREEN Efficacy (%) ([3]; F-αIIb peptide): 48%
384-well SCREEN Confirm? ([3]; F-αIIb peptide, YES/NO): YES
IC50 ([3]; F-αIIb peptide): 15.8 µM

CSCC[C@H](NC(=O)[C@@H](NC(=O)[C@H](CCCCN)NC(=O)[C@@H](NC(=O)[C@H](Cc1ccccc1)NC(=O)[C@H](CC(C)C)NC(=O)[C@H](CCCCN)NC(=O)[C@H](CCCNC(=N)N)NC(C)=O)C(C)C)C(C)C)C(=O)N[C@@H](Cc1ccccc1)C(=O)N[C@@H](Cc1c[nH]c2ccccc12)C(=O)N[C@@H](CCCNC(=N)N)C(=O)N[C@@H](CC(C)C)C(=O)N[C@@H](CC(N)=O)C(=O)NCC(=O)N[C@@H](C)C(=O)N[C@@H](CCCCNC(=S)Nc1ccc2c(c1)C(=O)OC21c2ccc(O)cc2Oc2cc(O)ccc21)C(=O)O [F-scrambled, reference compound] (Ac-RKLFVKVMFWRLNGAK(FITC)-OH; C-terminus assumed)
affinity weaker compared to the native peptide ([1]; F-scrambled vs F-αIIb, 1.6 vs 0.2 μM): ~8 fold

Cn1cnc(-c2nccc3c(O)nc(OCCCC(F)(F)F)nc23)c1.O=C(O)C(F)(F)F [NCGC00381768-02]
Curve Class (confirmatory screen) [2, 8]: 4
Efficacy (%) (confirmatory screen) [2, 9]: -16%
Efficacy (%) [2, 5]: -25%
Curve Class [2, 10]: -2.4
IC50 [2, 7]: 31.6 µM
Curve Class (counterscreen) [4, 11]: 4
Efficacy (%) (counterscreen) [4, 12]: -28%

Cc1ccc(C(=O)Nc2ccc(S(=O)(=O)O)c3cc(S(=O)(=O)O)cc(S(=O)(=O)O)c23)cc1NC(=O)c1cccc(NC(=O)Nc2cccc(C(=O)Nc3cc(C(=O)Nc4ccc(S(=O)(=O)O)c5cc(S(=O)(=O)O)cc(S(=O)(=O)O)c45)ccc3C)c2)c1 [NCGC00163318-03]
CONFIRMATORY SCREEN Confirm? ([2]; confirmatory screen, YES/NO call): YES
CONFIRMATORY SCREEN Curve Class [2, 13]: -1.4
CONFIRMATORY SCREEN Efficacy (%) ([2]; confirmatory screen, negative = inhibition): -15%
IC50 ([2]; confirmatory screen, read-out: CONFIRMATORY SCREEN IC50): 7.9 µM
Efficacy (%) [2, 5]: -22%
Curve Class [2, 6]: -1.4
IC50 [2, 7]: 0.7 µM
COUNTERSCREEN Efficacy (%) [4, 14]: 16%
COUNTERSCREEN Confirm? ([4]; scrambled-peptide counterscreen, YES/NO call): YES
COUNTERSCREEN Curve Class [4, 14]: 4

O=C(O)C(F)(F)F.O=C1CCCC2=C1C1(CCOCC1)N=C(Nc1nc3ccccc3o1)N2 [NCGC00188584-01]
CONFIRMATORY SCREEN Efficacy (%) ([2]; confirmatory screen): 0%
CONFIRMATORY SCREEN Curve Class ([2]; confirmatory screen): 4
Efficacy (%) [2, 15]: -26%
IC50 [2, 16]: 15.8 µM
COUNTERSCREEN Efficacy (%) ([4]; counterscreen): -16%
COUNTERSCREEN Curve Class ([4]; counterscreen): 4

CC1(C)OB(c2ccc(O)c3ncc(N4CCNCC4)cc23)OC1(C)C.O=C(O)C(F)(F)F [NCGC00241053-01]
Efficacy (%) (confirmatory screen) ([2]; confirmatory screen): -132%
Confirm? (confirmatory screen) ([2]; confirmatory screen, YES/NO): YES
Curve Class (confirmatory screen) [2, 13]: -2.1
IC50 ([2]; confirmatory screen, read-out: IC50 [μM] (confirmatory screen)): 31.6 µM
Efficacy (%) [2, 5]: -78%
Curve Class [2, 10]: -2.2
IC50 [2, 7]: 50.1 µM
Efficacy (%) (counterscreen) ([4]; counterscreen): -102%
Curve Class (counterscreen) ([4]; counterscreen, negative sign = inhibitory curve): -1.1
IC50 ([4]; counterscreen): 20 µM

Cc1ccsc1C1N=C(Nc2nc3ccccc3o2)NC2=C1C(=O)CCC2.O=C(O)C(F)(F)F (stereo not drawn) [NCGC00189283-01]
Curve Class (confirmatory screen) [2, 8]: 4
Efficacy (%) (confirmatory screen) [2, 9]: -22%
Efficacy (%) [2, 15]: -28%
IC50 [2, 16]: 7.9 µM
Confirm? (counterscreen) ([4]; Table S3, counterscreen, YES/NO call): YES
Curve Class (counterscreen) [4, 11]: -2.4
Efficacy (%) (counterscreen) [4, 12]: -34%
IC50 ([4]; Table S3, counterscreen): 63.1 µM
